Patent publication US12077503B2, “Substituted cyclic amides and their use as herbicides” (FMC CORPORATION, priority 2015, dated 2024)

Assays:
Assay in all cases: Test E preemergence
Format in all cases: in vivo
Settings in all cases: scale 0 to 100
[1] = test system: ragweed (common ragweed, Ambrosia elatior)
Method in brief: (§1)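 Greenhouse test: seeds in silt loam treated preemergence, or 1- to 4-leaf plants in peat-based potting medium treated postemergence, with surfactant-containing solvent formulation of compound; assessed 14 to 21 d later. Scores use a 0 to 100 scale where 100 means complete control.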

corn (Zea mays) = test system: corn (Zea mays)
Method in brief: as §1

[2] = test system: surinam grass (Brachiaria decumbens)
Method in brief: as §1

[3] = test system: barnyardgrass (Echinochloa crus-galli)
Method in brief: as §1

soybean (Glycine max) = test system: soybean (Glycine max)
Method in brief: as §1

[4] = test system: ryegrass, Italian (Italian ryegrass, Lolium multiflorum)
Method in brief: as §1

[5] = test system: sandbur (southern sandbur, Cenchrus echinatus)
Method in brief: as §1

[6] = test system: beggarticks (hairy beggarticks, Bidens pilosa)
Method in brief: as §1

[7] = test system: nightshade (eastern black nightshade, Solanum ptycanthum)
Method in brief: as §1

[8] = test system: johnsongrass (Sorghum halepense)
Method in brief: as §1

[9] = test system: field bindweed (Convolvulus arvensis)
Method in brief: as §1

[10] = test system: morningglory (Ipomoea coccinea)
Method in brief: as §1

[11] = test system: pigweed, palmer (palmer pigweed, Amaranthus palmeri)
Method in brief: as §1

[12] = test system: nutsedge, yellow (yellow nutsedge, Cyperus esculentus)
Method in brief: as §1

[13] = test system: foxtail, giant (giant foxtail, Setaria faberii)
Method in brief: as §1

[14] = test system: crabgrass, large (large crabgrass, Digitaria sangumnalis)
Method in brief: as §1

[15] = test system: crabgrass, Brazil (Brazilian crabgrass, Digitaria horizontalis)
Method in brief: as §1

[16] = test system: lambsquarters (Chenopodium album)
Method in brief: as §1

[17] = test system: velvetleaf (Abutilon theophrasti)
Method in brief: as §1

CN1C[C@H](c2ccc(F)c(F)c2)[C@@H](C(=O)Nc2ccccc2F)C1=O [Compound 596, (3S,4S)-4-(3,4-difluorophenyl)-N-(2-fluorophenyl)-1-methyl-2-oxo-3-pyrrolidinecarboxamide]
Plant response rating: Ragweed ([1]; 31 g ai/ha): 0
Plant response rating: Ragweed ([1]; 62 g ai/ha): 0
Plant response rating: Ragweed ([1]; 125 g ai/ha): 25
Plant response rating: Ragweed ([1]; 250 g ai/ha): 50
Plant response rating: Corn (corn (Zea mays); 31 g ai/ha): 0
Plant response rating: Corn (corn (Zea mays); 62 g ai/ha): 0
Plant response rating: Corn (corn (Zea mays); 125 g ai/ha): 0
Plant response rating: Corn (corn (Zea mays); 250 g ai/ha): 0
Plant response rating: Surinam Grass ([2]; 31 g ai/ha): 35
Plant response rating: Surinam Grass ([2]; 62 g ai/ha): 65
Plant response rating: Surinam Grass ([2]; 125 g ai/ha): 95
Plant response rating: Surinam Grass ([2]; 250 g ai/ha): 95
Plant response rating: Barnyardgrass ([3]; 31 g ai/ha): 95
Plant response rating: Barnyardgrass ([3]; 62 g ai/ha): 98
Plant response rating: Barnyardgrass ([3]; 125 g ai/ha): 98
Plant response rating: Barnyardgrass ([3]; 250 g ai/ha): 98
Plant response rating: Soybean (soybean (Glycine max); 31 g ai/ha): 0
Plant response rating: Soybean (soybean (Glycine max); 62 g ai/ha): 0
Plant response rating: Soybean (soybean (Glycine max); 125 g ai/ha): 0
Plant response rating: Soybean (soybean (Glycine max); 250 g ai/ha): 0
Plant response rating: Ryegrass, Italian ([4]; 31 g ai/ha): 0
Plant response rating: Ryegrass, Italian ([4]; 62 g ai/ha): 0
Plant response rating: Ryegrass, Italian ([4]; 125 g ai/ha): 35
Plant response rating: Ryegrass, Italian ([4]; 250 g ai/ha): 50
Plant response rating: Sandbur ([5]; 31 g ai/ha): 85
Plant response rating: Sandbur ([5]; 62 g ai/ha): 90
Plant response rating: Sandbur ([5]; 125 g ai/ha): 90
Plant response rating: Sandbur ([5]; 250 g ai/ha): 95
Plant response rating: Beggarticks ([6]; 31 g ai/ha): 0
Plant response rating: Beggarticks ([6]; 62 g ai/ha): 0
Plant response rating: Beggarticks ([6]; 125 g ai/ha): 0
Plant response rating: Beggarticks ([6]; 250 g ai/ha): 0
Plant response rating: Nightshade ([7]; 31 g ai/ha): 0
Plant response rating: Nightshade ([7]; 62 g ai/ha): 0
Plant response rating: Nightshade ([7]; 125 g ai/ha): 0
Plant response rating: Nightshade ([7]; 250 g ai/ha): 60
Plant response rating: Johnsongrass ([8]; 31 g ai/ha): 0
Plant response rating: Johnsongrass ([8]; 62 g ai/ha): 0
Plant response rating: Johnsongrass ([8]; 125 g ai/ha): 0
Plant response rating: Johnsongrass ([8]; 250 g ai/ha): 35
Plant response rating: Field Bindweed ([9]; 31 g ai/ha): 0
Plant response rating: Field Bindweed ([9]; 62 g ai/ha): 0
Plant response rating: Field Bindweed ([9]; 125 g ai/ha): 0
Plant response rating: Field Bindweed ([9]; 250 g ai/ha): 15
Plant response rating: Morningglory ([10]; 31 g ai/ha): 0
Plant response rating: Morningglory ([10]; 62 g ai/ha): 0
Plant response rating: Morningglory ([10]; 125 g ai/ha): 0
Plant response rating: Morningglory ([10]; 250 g ai/ha): 0
Plant response rating: Pigweed, Palmer ([11]; 31 g ai/ha): 0
Plant response rating: Pigweed, Palmer ([11]; 62 g ai/ha): 0
Plant response rating: Pigweed, Palmer ([11]; 125 g ai/ha): 0
Plant response rating: Pigweed, Palmer ([11]; 250 g ai/ha): 40
Plant response rating: Nutsedge, Yellow ([12]; 31 g ai/ha): 0
Plant response rating: Nutsedge, Yellow ([12]; 62 g ai/ha): 0
Plant response rating: Nutsedge, Yellow ([12]; 125 g ai/ha): 0
Plant response rating: Nutsedge, Yellow ([12]; 250 g ai/ha): 0
Plant response rating: Foxtail, Giant ([13]; 31 g ai/ha): 95
Plant response rating: Foxtail, Giant ([13]; 62 g ai/ha): 95
Plant response rating: Foxtail, Giant ([13]; 125 g ai/ha): 98
Plant response rating: Foxtail, Giant ([13]; 250 g ai/ha): 98
Plant response rating: Crabgrass, Large ([14]; 31 g ai/ha): 95
Plant response rating: Crabgrass, Large ([14]; 62 g ai/ha): 95
Plant response rating: Crabgrass, Large ([14]; 125 g ai/ha): 98
Plant response rating: Crabgrass, Large ([14]; 250 g ai/ha): 98
Plant response rating: Crabgrass, Brazil ([15]; 31 g ai/ha): 100
Plant response rating: Crabgrass, Brazil ([15]; 62 g ai/ha): 95
Plant response rating: Crabgrass, Brazil ([15]; 125 g ai/ha): 100
Plant response rating: Crabgrass, Brazil ([15]; 250 g ai/ha): 100
Plant response rating: Lambsquarters ([16]; 31 g ai/ha): 25
Plant response rating: Lambsquarters ([16]; 62 g ai/ha): 25
Plant response rating: Lambsquarters ([16]; 125 g ai/ha): 80
Plant response rating: Lambsquarters ([16]; 250 g ai/ha): 90
Plant response rating: Velvetleaf ([17]; 31 g ai/ha): 0
Plant response rating: Velvetleaf ([17]; 62 g ai/ha): 0
Plant response rating: Velvetleaf ([17]; 125 g ai/ha): 0
Plant response rating: Velvetleaf ([17]; 250 g ai/ha): 35

CN1C[C@H](c2ccc(C(F)(F)F)cc2)[C@@H](C(=O)Nc2cccc(F)c2F)C1=O [Compound 623, (3S,4S)—N-(2,3-difluorophenyl)-1-methyl-2-oxo-4-[4-(trifluoromethyl)phenyl]-3-pyrrolidinecarboxamide]
Plant response rating: Ragweed ([1]; 31 g ai/ha): 60
Plant response rating: Ragweed ([1]; 62 g ai/ha): 90
Plant response rating: Ragweed ([1]; 125 g ai/ha): 95
Plant response rating: Ragweed ([1]; 250 g ai/ha): 85
Plant response rating: Corn (corn (Zea mays); 31 g ai/ha): 0
Plant response rating: Corn (corn (Zea mays); 62 g ai/ha): 60
Plant response rating: Corn (corn (Zea mays); 125 g ai/ha): 75
Plant response rating: Corn (corn (Zea mays); 250 g ai/ha): 65
Plant response rating: Surinam Grass ([2]; 31 g ai/ha): 75
Plant response rating: Surinam Grass ([2]; 62 g ai/ha): 90
Plant response rating: Surinam Grass ([2]; 125 g ai/ha): 90
Plant response rating: Surinam Grass ([2]; 250 g ai/ha): 90
Plant response rating: Barnyardgrass ([3]; 31 g ai/ha): 95
Plant response rating: Barnyardgrass ([3]; 62 g ai/ha): 95
Plant response rating: Barnyardgrass ([3]; 125 g ai/ha): 98
Plant response rating: Barnyardgrass ([3]; 250 g ai/ha): 98
Plant response rating: Soybean (soybean (Glycine max); 31 g ai/ha): 0
Plant response rating: Soybean (soybean (Glycine max); 62 g ai/ha): 0
Plant response rating: Soybean (soybean (Glycine max); 125 g ai/ha): 0
Plant response rating: Soybean (soybean (Glycine max); 250 g ai/ha): 0
Plant response rating: Ryegrass, Italian ([4]; 31 g ai/ha): 25
Plant response rating: Ryegrass, Italian ([4]; 62 g ai/ha): 50
Plant response rating: Ryegrass, Italian ([4]; 125 g ai/ha): 60
Plant response rating: Ryegrass, Italian ([4]; 250 g ai/ha): 90
Plant response rating: Sandbur ([5]; 31 g ai/ha): 90
Plant response rating: Sandbur ([5]; 62 g ai/ha): 90
Plant response rating: Sandbur ([5]; 125 g ai/ha): 90
Plant response rating: Sandbur ([5]; 250 g ai/ha): 90
Plant response rating: Beggarticks ([6]; 31 g ai/ha): 0
Plant response rating: Beggarticks ([6]; 62 g ai/ha): 0
Plant response rating: Beggarticks ([6]; 125 g ai/ha): 0
Plant response rating: Beggarticks ([6]; 250 g ai/ha): 35
Plant response rating: Nightshade ([7]; 62 g ai/ha): 35
Plant response rating: Nightshade ([7]; 125 g ai/ha): 70
Plant response rating: Nightshade ([7]; 250 g ai/ha): 70
Plant response rating: Johnsongrass ([8]; 31 g ai/ha): 40
Plant response rating: Johnsongrass ([8]; 62 g ai/ha): 60
Plant response rating: Johnsongrass ([8]; 125 g ai/ha): 85
Plant response rating: Johnsongrass ([8]; 250 g ai/ha): 95
Plant response rating: Field Bindweed ([9]; 31 g ai/ha): 0
Plant response rating: Field Bindweed ([9]; 62 g ai/ha): 60
Plant response rating: Field Bindweed ([9]; 125 g ai/ha): 70
Plant response rating: Field Bindweed ([9]; 250 g ai/ha): 75
Plant response rating: Morningglory ([10]; 31 g ai/ha): 0
Plant response rating: Morningglory ([10]; 62 g ai/ha): 0
Plant response rating: Morningglory ([10]; 125 g ai/ha): 0
Plant response rating: Morningglory ([10]; 250 g ai/ha): 0
Plant response rating: Pigweed, Palmer ([11]; 31 g ai/ha): 75
Plant response rating: Pigweed, Palmer ([11]; 62 g ai/ha): 90
Plant response rating: Pigweed, Palmer ([11]; 125 g ai/ha): 95
Plant response rating: Pigweed, Palmer ([11]; 250 g ai/ha): 95
Plant response rating: Nutsedge, Yellow ([12]; 31 g ai/ha): 0
Plant response rating: Nutsedge, Yellow ([12]; 62 g ai/ha): 20
Plant response rating: Nutsedge, Yellow ([12]; 125 g ai/ha): 40
Plant response rating: Nutsedge, Yellow ([12]; 250 g ai/ha): 80
Plant response rating: Foxtail, Giant ([13]; 31 g ai/ha): 95
Plant response rating: Foxtail, Giant ([13]; 62 g ai/ha): 95
Plant response rating: Foxtail, Giant ([13]; 125 g ai/ha): 95
Plant response rating: Foxtail, Giant ([13]; 250 g ai/ha): 95
Plant response rating: Crabgrass, Large ([14]; 31 g ai/ha): 98
Plant response rating: Crabgrass, Large ([14]; 62 g ai/ha): 98
Plant response rating: Crabgrass, Large ([14]; 125 g ai/ha): 98
Plant response rating: Crabgrass, Large ([14]; 250 g ai/ha): 98
Plant response rating: Crabgrass, Brazil ([15]; 31 g ai/ha): 98
Plant response rating: Crabgrass, Brazil ([15]; 62 g ai/ha): 98
Plant response rating: Crabgrass, Brazil ([15]; 125 g ai/ha): 98
Plant response rating: Crabgrass, Brazil ([15]; 250 g ai/ha): 98
Plant response rating: Lambsquarters ([16]; 31 g ai/ha): 90
Plant response rating: Lambsquarters ([16]; 62 g ai/ha): 90
Plant response rating: Lambsquarters ([16]; 125 g ai/ha): 100
Plant response rating: Lambsquarters ([16]; 250 g ai/ha): 95
Plant response rating: Velvetleaf ([17]; 31 g ai/ha): 0
Plant response rating: Velvetleaf ([17]; 62 g ai/ha): 50
Plant response rating: Velvetleaf ([17]; 125 g ai/ha): 65
Plant response rating: Velvetleaf ([17]; 250 g ai/ha): 65
